Literature values, collected in patent US5595896A, “Expression of heterologous genes in transgenic plants and plant cells using plant asparagine synthetase promoters” (New York University, priority 1993, dated 1997).
Numbered stars: 1 amine (or outer) side, 2 acyl side, 3 side chain; on linkers, the order of the positions; unused ones are H or OH. Bridge positions count the residues as written; N and C are the ends. Square brackets hold non-standard residues; d marks the D form. Peptide text beside a SMILES is read from it. I, II: the chains in the order shown. Actinocin(9to1) = Cc1c2oc3c(C)ccc(C(=O)[*:1])c3nc-2c(C(=O)[*:2])c(N)c1=O; NMeV = CN[CH](C(=O)O)C(C)C; Sar = CNCC(=O)O

Tested on: PLANT AS
Settings: not given

Row | Compound | Inhibition (%)
1 | CS(=N)(=O)CC[C@H](N)C(=O)O (stereo partly drawn) [L-methionine-S-sulphoximine] | 8.6%

Same assay, conditions: Asparagine analogues, 2 mM

Row | Compound | Inhibition (%)
2 | [N-]=[N+]=CC(=O)C[C@H](N)C(=O)O [5-diazo-4-oxo-L-norvaline] | 40.3%
3 | N-ethyl-L-asparagine | 47.2%
4 | N[C@@H](CS(N)(=O)=O)C(=O)O [2-amino-2-carboxy-L-ethanesulphonamide] | 42.5%
5 | CC(C(N)=O)C(N)C(=O)O (racemic) [β-methyl-DL-asparagine] | 55.1%
6 | CN[C@@H](CC(N)=O)C(=O)O [N-α-methyl-L-asparagine] | 38.8%
7 | N-methyl-L-asparagine | 57.6%
8 | NC(=O)[C@H](O)[C@H](N)C(=O)O [erythro-β-hydroxy-L-asparagine] | 59.5%
9 | NC(=O)[C@@H](O)[C@H](N)C(=O)O [threo β-hydroxy-L-asparagine] | 45.2%

Same assay, conditions: Aspartate analogues, 2 mM

Row | Compound | Inhibition (%)
10 | NC(=O)[C@H](N)[C@H](N)C(=O)O (relative stereo) [meso-diaminosuccinamate] | 50.6%
11 | N[C@@H](CC(=O)CCl)C(=O)O [5-chloro-4-oxo-L-norvaline] | 42.1%
12 | N[C@H](C(=O)O)[C@@H](O)C(=O)O [erythro β-hydroxy-L-aspartate] | 65.4%
13 | C[C@@H](C(=O)O)[C@H](N)C(=O)O [erythro β-methyl-L-aspartate] | 51.4%
14 | N[C@@H](CC(=O)CBr)C(=O)O [5-bromo-4-oxo-L-norvaline] | 49.5%
15 | C[C@H](C(=O)O)[C@H](N)C(=O)O [threo β-methyl-L-aspartate] | 58.4%

Same assay, conditions: Glutamine analogues, 5 mM

Row | Compound | Inhibition (%)
16 | [N-]=[N+]=CC(=O)OC[C@H](N)C(=O)O [L-azaserine] | 97.5%
17 | CCOC(=O)CC[C@H](N)C(=O)O [L-glutamate-γ-ethyl ester] | 23.6%
18 | NC(=O)CCC(NC(=O)OCc1ccccc1)C(=O)O (racemic) [N-CBZ-DL-glutamine] | 30.5%
19 | NC(=O)CCCC(N)C(=O)O (racemic) [DL-homoglutamine] | 42.4%
20 | CC(=O)N[C@@H](CCC(N)=O)C(=O)O [N-acetyl-L-glutamine] | 10.2%
21 | NC(=O)CC[C@H](N)C(N)=O [L-glutamate diamide] | 9.1%
22 | C=C(C[C@H](N)C(=O)O)C(N)=O [γ-methylene-L-glutamine] | 20.4%
23 | COC(=O)CC[C@H](N)C(=O)O [L-glutamate-γ-methyl ester] | 27.2%
24 | NC(=O)SC[C@H](N)C(=O)O [S-carbamoyl-L-cysteine] | 35.6%
25 | NC(=O)NC[C@H](N)C(=O)O [L-albizziine] | 85.2%
26 | NC(=O)CC[C@@H](N)C(=O)O [D-glutamine] | 14.8%
27 | 2-hydroxyethyl-L-glutamine | 31.1%

Tested on: GS
Settings: toxin produced by P. syringae, coinfected alfalfa plants

Row | Compound | GS activity inhibited by toxin
28 | N[C@@H](CCC1(O)CNC1=O)C(=O)O (stereo partly drawn) [Tabtoxinine β-lactam] | severely inhibited

Tested on: AS
Settings: actinomycin D treatment, cotyledons of germinating cotton seedlings

Row | Compound | induction of AS activity
29 | Cc1c2oc3c(C)ccc(C(=O)NC4C(=O)NC(C(C)C)C(=O)N5CCCC5C(=O)N(C)CC(=O)N(C)C(C(C)C)C(=O)OC4C)c3nc-2c(C(=O)NC2C(=O)NC(C(C)C)C(=O)N3CCCC3C(=O)N(C)CC(=O)N(C)C(C(C)C)C(=O)OC2C)c(N)c1=O (centres unmarked) [actinomycin D] (I: TVP[Sar][NMeV] / II: TVP[Sar][NMeV]; ester I:1-I:C, II:1-II:C; linker I:N-II:N via Actinocin(9to1); configuration not given here) | abolished
